Source: article PMC6378654 (Journal of Medicinal Chemistry, 2019)
Like-named read-outs stand apart in the source and are kept apart here. Values belong to the molecule of their own block, whether it stands above or below them.

Columns and labels:
[1] = target: T1, human proteasome subunit β2c (Homo sapiens, UniProt Q99436); test: Competitive ABPP in Raji cell lysates; assay type: biochemical; conditions: for IC50: read-out: Apparent IC50 β2c
T1 sequence (Q99436 44-277): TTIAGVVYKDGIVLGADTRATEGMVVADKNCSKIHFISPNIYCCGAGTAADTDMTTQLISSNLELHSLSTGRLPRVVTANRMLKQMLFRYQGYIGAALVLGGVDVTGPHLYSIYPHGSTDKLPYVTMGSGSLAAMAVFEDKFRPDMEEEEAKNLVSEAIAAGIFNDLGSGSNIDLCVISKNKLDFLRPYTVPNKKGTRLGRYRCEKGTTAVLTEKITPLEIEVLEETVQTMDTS

[2] = system: human proteasome subunit β2c; test: Competitive ABPP in Raji cell lysates; assay type: biochemical
[3] = target: T2, human proteasome subunit β2i (Homo sapiens, UniProt P40306); test: Competitive ABPP in Raji cell lysates; assay type: biochemical; conditions: LU-002i 3 μM, LU-002c 0.3 μM, LU-102 1 μM, Figure 4B
T2 sequence (P40306 40-273): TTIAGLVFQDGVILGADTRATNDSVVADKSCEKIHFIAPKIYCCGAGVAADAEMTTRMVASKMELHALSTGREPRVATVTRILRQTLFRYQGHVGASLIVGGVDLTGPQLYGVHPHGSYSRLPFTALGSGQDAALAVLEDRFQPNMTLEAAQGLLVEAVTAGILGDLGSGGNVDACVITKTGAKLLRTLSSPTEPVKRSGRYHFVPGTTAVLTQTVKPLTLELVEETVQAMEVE

β2i = target: T3, β2i (Homo sapiens, UniProt P40306); test: ABPP assay with probe 97 in Raji cell lysates; assay type: biochemical; conditions: for labeling of β2i by probe 97 after preincubation with inhibitor: LU-002i at 3 μM, LU-002c at high concentrations, Figure 4B
T3 sequence (P40306 40-273): T2 sequence (P40306 40-273)

[4] = Solubility in aqueous solutions; assay type: physicochemical; conditions: stated in words

Compound: COc1ccc(C[C@H](NC(=O)[C@H](C)NC(=O)CN2CCOCC2)C(=O)N[C@@H](C[C@H]2CCCC3CCCCC32)C(=O)[C@@]2(C)CO2)cc1 (stereo partly shown) [Compound 74, Morp-Ala-Tyr(Me)-1-DecAla-EK]
- IC50 ([1]; Raji cell lysates, Table 6): > 100 µM

Compound: COC[C@H](NC(=O)[C@H](CC(C)C)NC(=O)c1cnc(C)s1)C(=O)N[C@H](/C=C/S(C)(=O)=O)Cc1ccc(CN)cc1 [Compound 20]
- selectivity for β2c over β2i ([2]; Raji cell extracts, wider range of concentrations (Table 2)): ≥ 27 fold
- selectivity for β2c over β2i ([2]; initial screening (Table 1)): 14 fold

- β2c labeling by the three-probe mixture after inhibitor treatment ([1]; Raji cell lysates, LU-002c 0.3 μM, LU-102 1 μM, Figure 4B): completely prevented
- β2i labeling by the three-probe mixture after inhibitor treatment [3]: partially inhibited
- labeling of β2i by probe 97 after preincubation with inhibitor (β2i): partially reduced
Compound: CC(C)C[C@H](NC(=O)[C@H](Cc1ccccc1)N=[N+]=[N-])C(=O)N[C@@H](C)C(=O)N[C@H](/C=C/S(C)(=O)=O)Cc1ccc(CN)cc1 [Compound 4]

Compound: COc1ccc(C[C@H](NC(=O)[C@H](C)NC(=O)CN2CCOCC2)C(=O)N[C@@H](CCC2CCCCC2)C(=O)[C@@]2(C)CO2)cc1 [Compound 39, Morp-Ala-Tyr(Me)-HomoCha-EK]
- IC50 ([1]; Raji cell lysates, wider range of final concentrations, Table 5): 2.5 µM

Compound: Cc1ncc(C(=O)N[C@@H](CC2CCCCC2)C(=O)N[C@@H](CC2CCCCC2)C(=O)N[C@H](/C=C/S(C)(=O)=O)Cc2ccc(CN)cc2)s1 [Compound 36]
- selectivity for β2c over β2i ([2]; initial screening (Table 1)): 10.5 fold

- decreased potency for β2c compared to LU-102 ([1]; initial screening): 23 fold
Compound: CC(C)C[C@H](NC(=O)c1cnccn1)C(=O)N[C@@H](CC(C)C)C(=O)N[C@H](/C=C/S(C)(=O)=O)Cc1ccc(CN)cc1 [Compound 7]

Compound: COc1ccc(C[C@H](NC(=O)[C@H](C)NC(=O)CN2CCOCC2)C(=O)N[C@@H](C[C@@H]2CCCC3CCCCC32)C(=O)[C@@]2(C)CO2)cc1 (stereo partly shown) [Compound 77, Morp-Ala-Tyr(Me)-1-DecAla-EK]
- IC50 ([1]; Raji cell lysates, Table 6): 28 µM

- labeling of β2i by probe 97 after preincubation with inhibitor (β2i): completely abolished
Compound: CC(C)C[C@H](NC(=O)[C@H](Cc1ccccc1)N=[N+]=[N-])C(=O)N[C@@H](CC(C)C)C(=O)N[C@H](/C=C/S(C)(=O)=O)Cc1ccc(CN)cc1 [Compound 1, reference compound]

Compound: COc1ccc(C[C@H](NC(=O)[C@H](C)NC(=O)CN2CCOCC2)C(=O)N[C@@H](C[C@H]2CCC[C@@H]3CCCC[C@@H]32)C(=O)[C@@]2(C)CO2)cc1 [Compound 86, Morp-Ala-Tyr(Me)-1-DecAla-EK]
- IC50 ([1]; Raji cell lysates, Table 6): > 100 µM

Compound: COc1ccc(C[C@H](NC(=O)[C@H](C)NC(=O)CN2CCOCC2)C(=O)N[C@@H](C[C@@H]2CCCc3ccccc32)C(=O)[C@@]2(C)CO2)cc1 [Compound 71, Morp-Ala-Tyr(Me)-1-(S)-TetraNal-EK]
- IC50 ([1]; Raji cell lysates, Table 6): > 100 µM

Compound: COc1ccc(C[C@H](NC(=O)[C@H](C)NC(=O)CN2CCOCC2)C(=O)N[C@@H](CC2CCCC3CCCCC32)C(=O)[C@@]2(C)CO2)cc1 (stereo partly shown) [Compound 5]
- solubility in aqueous solutions [4]: poorly soluble

- β2i labeling by ABP 97 (β2i; final concentration of 3 μM, Figure 4A): selective
Compound: CC1=CC(C)=N/C1=C(/CCCCc1cn(CCOc2ccc(C[C@H](NC(=O)[C@H](C)NC(=O)CN3CCOCC3)C(=O)N[C@@H](CC3CCCC4CCCCC43)C(=O)[C@@]3(C)CO3)cc2)nn1)c1c(C)cc(C)n1B(F)F (stereo partly shown) [Compound 97, Morp-Ala-Tyr(O–C2H4-BODIPY(FL))-1-DecAla-EK]

Compound: COc1ccc(C[C@H](NC(=O)[C@H](C)NC(=O)CN2CCOCC2)C(=O)N[C@@H](C[C@H]2CCCc3ccccc32)C(=O)[C@@]2(C)CO2)cc1 [Compound 68, Morp-Ala-Tyr(Me)-1-(R)-TetraNal-EK]
- IC50 ([1]; Raji cell lysates, Table 6): > 100 µM
